In patent US6525001B1, “Substituted pyrimidine and pyridine herbicides” (Mid-American Commercialization Corporation, priority 1997, dated 2003):

Assays:
Assay in all cases: Test B pre-/postemergence
Assay type in all cases: in vivo
Parameters in all cases: key: 0 is no effect; 10 is complete control
[1] = tested on: wheat (Triticum aestivum)
Method in brief: (§1)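 Response scores run from 0, meaning no effect, to 10, meaning complete control, assigned by eye relative to controls twelve to sixteen days after spraying. Treatment was both preemergence on planted seed and postemergence on plants at the 1- to 4-leaf stage.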

rape (Brassica napus) = tested on: rape (Brassica napus)
Method in brief: as §1

[2] = tested on: momingglory (Ipomoea hederacea)
Method in brief: as §1

[3] = tested on: crabgrass (Digitaria sanguinalis)
Method in brief: as §1

[4] = tested on: giant foxtail (Setaria faberii)
Method in brief: as §1

[5] = tested on: cocklebur (Xanthium strumarium)
Method in brief: as §1

[6] = tested on: sugar beet (Beta vulgaris)
Method in brief: as §1

[7] = tested on: bedstraw (Galium aparine)
Method in brief: as §1

soybean (Glycine max) = tested on: soybean (Glycine max)
Method in brief: as §1

[8] = tested on: pigweed (Amaranthus retroflexus)
Method in brief: as §1

corn (Zea mays) = tested on: corn (Zea mays)
Method in brief: as §1

[9] = tested on: velvetleaf (Abutilon theophrasti)
Method in brief: as §1

[10] = tested on: purple nutsedge (Cyperus rotundus)
Method in brief: as §1

wild oat (Avena fatua) = tested on: wild oat (Avena fatua)
Method in brief: as §1

[11] = Preemergence, Rate 62 g/ha, scale of 0 to 10

## Cc1cnc(-n2cnc(C(F)(F)F)c2)nc1C(=O)c1cccc(C(F)(F)F)c1 [Compound 61]
[1]; [11]
  Plant response rating, Wheat: 1
[1]; Rate 62 g/ha, Postemergence
  Wheat plant response rating: 3
[1]; Rate 125 g/ha, Postemergence
  Wheat plant response rating: 3
[1]; Rate 125 g/ha, Preemergence
  Plant response rating, Wheat: 3
[1]; Rate 250 g/ha, Postemergence
  Plant response rating, Wheat: 3
[1]; Rate 250 g/ha, Preemergence
  Plant response rating, Wheat: 4
[1]; Rate 500 g/ha, Postemergence
  Plant response rating, Wheat: 4
[1]; Rate 500 g/ha, Preemergence
  Plant response rating, Wheat: 4
Rape (Brassica napus); [11]
  Plant response rating, Rape: 4
Rape (Brassica napus); Rate 62 g/ha, Postemergence
  Rape plant response rating: 6
Rape (Brassica napus); Rate 125 g/ha, Postemergence
  Rape plant response rating: 7
Rape (Brassica napus); Rate 125 g/ha, Preemergence
  Plant response rating, Rape: 8
Rape (Brassica napus); Rate 250 g/ha, Postemergence
  Plant response rating, Rape: 8
Rape (Brassica napus); Rate 250 g/ha, Preemergence
  Plant response rating, Rape: 9
Rape (Brassica napus); Rate 500 g/ha, Postemergence
  Plant response rating, Rape: 9
Rape (Brassica napus); Rate 500 g/ha, Preemergence
  Plant response rating, Rape: 9
[2]; Rate 62 g/ha, Postemergence
  Morningglory plant response rating: 5
[2]; Rate 125 g/ha, Postemergence
  Morningglory plant response rating: 9
[2]; Rate 125 g/ha, Preemergence
  Plant response rating, Morningglory: 3
[2]; Rate 250 g/ha, Preemergence
  Plant response rating, Morningglory: 10
[2]; Rate 500 g/ha, Postemergence
  Plant response rating, Morningglory: 9
[2]; Rate 500 g/ha, Preemergence
  Plant response rating, Morningglory: 10
[3]; [11]
  Plant response rating, Crabgrass: 3
[3]; Rate 62 g/ha, Postemergence
  Crabgrass plant response rating: 3
[3]; Rate 125 g/ha, Postemergence
  Crabgrass plant response rating: 3
[3]; Rate 125 g/ha, Preemergence
  Plant response rating, Crabgrass: 5
[3]; Rate 250 g/ha, Postemergence
  Plant response rating, Crabgrass: 7
[3]; Rate 250 g/ha, Preemergence
  Plant response rating, Crabgrass: 8
[3]; Rate 500 g/ha, Postemergence
  Plant response rating, Crabgrass: 9
[3]; Rate 500 g/ha, Preemergence
  Plant response rating, Crabgrass: 10
[4]; [11]
  Plant response rating, Giant foxtail: 8
[4]; Rate 62 g/ha, Postemergence
  Giant foxtail plant response rating: 2
[4]; Rate 125 g/ha, Postemergence
  Giant foxtail plant response rating: 4
[4]; Rate 125 g/ha, Preemergence
  Plant response rating, Giant foxtail: 9
[4]; Rate 250 g/ha, Postemergence
  Plant response rating, Giant foxtail: 5
[4]; Rate 250 g/ha, Preemergence
  Plant response rating, Giant foxtail: 10
[4]; Rate 500 g/ha, Postemergence
  Plant response rating, Giant foxtail: 9
[4]; Rate 500 g/ha, Preemergence
  Plant response rating, Giant foxtail: 10
[5]; [11]
  Plant response rating, Cocklebur: 0
[5]; Rate 62 g/ha, Postemergence
  Cocklebur plant response rating: 3
[5]; Rate 125 g/ha, Postemergence
  Cocklebur plant response rating: 7
[5]; Rate 125 g/ha, Preemergence
  Plant response rating, Cocklebur: 0
[5]; Rate 250 g/ha, Postemergence
  Plant response rating, Cocklebur: 8
[5]; Rate 250 g/ha, Preemergence
  Plant response rating, Cocklebur: 1
[5]; Rate 500 g/ha, Postemergence
  Plant response rating, Cocklebur: 8
[5]; Rate 500 g/ha, Preemergence
  Plant response rating, Cocklebur: 10
[6]; [11]
  Plant response rating, Sugarbeets: 10
[6]; Rate 62 g/ha, Postemergence
  Sugarbeets plant response rating: 9
[6]; Rate 125 g/ha, Postemergence
  Sugarbeets plant response rating: 10
[6]; Rate 125 g/ha, Preemergence
  Plant response rating, Sugarbeets: 10
[6]; Rate 250 g/ha, Postemergence
  Plant response rating, Sugarbeets: 10
[6]; Rate 250 g/ha, Preemergence
  Plant response rating, Sugarbeets: 10
[6]; Rate 500 g/ha, Postemergence
  Plant response rating, Sugarbeets: 10
[6]; Rate 500 g/ha, Preemergence
  Plant response rating, Sugarbeets: 10
[7]; [11]
  Plant response rating, Bedstraw: 3
[7]; Rate 62 g/ha, Postemergence
  Bedstraw plant response rating: 8
[7]; Rate 125 g/ha, Postemergence
  Bedstraw plant response rating: 8
[7]; Rate 125 g/ha, Preemergence
  Plant response rating, Bedstraw: 4
[7]; Rate 250 g/ha, Postemergence
  Plant response rating, Bedstraw: 9
[7]; Rate 250 g/ha, Preemergence
  Plant response rating, Bedstraw: 6
[7]; Rate 500 g/ha, Postemergence
  Plant response rating, Bedstraw: 9
[7]; Rate 500 g/ha, Preemergence
  Plant response rating, Bedstraw: 9
Soybean (Glycine max); [11]
  Plant response rating, Soybean: 0
Soybean (Glycine max); Rate 62 g/ha, Postemergence
  Soybean plant response rating: 4
Soybean (Glycine max); Rate 125 g/ha, Postemergence
  Soybean plant response rating: 5
Soybean (Glycine max); Rate 125 g/ha, Preemergence
  Plant response rating, Soybean: 1
Soybean (Glycine max); Rate 250 g/ha, Postemergence
  Plant response rating, Soybean: 5
Soybean (Glycine max); Rate 250 g/ha, Preemergence
  Plant response rating, Soybean: 1
Soybean (Glycine max); Rate 500 g/ha, Postemergence
  Plant response rating, Soybean: 6
Soybean (Glycine max); Rate 500 g/ha, Preemergence
  Plant response rating, Soybean: 2
[8]; [11]
  Plant response rating, Redroot pigweed: 8
[8]; Rate 62 g/ha, Postemergence
  Redroot pigweed plant response rating: 8
[8]; Rate 125 g/ha, Postemergence
  Redroot pigweed plant response rating: 9
[8]; Rate 125 g/ha, Preemergence
  Plant response rating, Redroot pigweed: 9
[8]; Rate 250 g/ha, Postemergence
  Plant response rating, Redroot pigweed: 9
[8]; Rate 250 g/ha, Preemergence
  Plant response rating, Redroot pigweed: 9
[8]; Rate 500 g/ha, Postemergence
  Plant response rating, Redroot pigweed: 9
[8]; Rate 500 g/ha, Preemergence
  Plant response rating, Redroot pigweed: 10
Corn (Zea mays); [11]
  Plant response rating, Corn: 1
Corn (Zea mays); Rate 62 g/ha, Postemergence
  Corn plant response rating: 2
Corn (Zea mays); Rate 125 g/ha, Postemergence
  Corn plant response rating: 3
Corn (Zea mays); Rate 125 g/ha, Preemergence
  Plant response rating, Corn: 1
Corn (Zea mays); Rate 250 g/ha, Postemergence
  Plant response rating, Corn: 3
Corn (Zea mays); Rate 250 g/ha, Preemergence
  Plant response rating, Corn: 1
Corn (Zea mays); Rate 500 g/ha, Postemergence
  Plant response rating, Corn: 4
Corn (Zea mays); Rate 500 g/ha, Preemergence
  Plant response rating, Corn: 2
[9]; [11]
  Plant response rating, Velvetleaf: 9
[9]; Rate 62 g/ha, Postemergence
  Velvetleaf plant response rating: 7
[9]; Rate 125 g/ha, Postemergence
  Velvetleaf plant response rating: 7
[9]; Rate 125 g/ha, Preemergence
  Plant response rating, Velvetleaf: 10
[9]; Rate 250 g/ha, Postemergence
  Plant response rating, Velvetleaf: 8
[9]; Rate 250 g/ha, Preemergence
  Plant response rating, Velvetleaf: 10
[9]; Rate 500 g/ha, Postemergence
  Plant response rating, Velvetleaf: 8
[9]; Rate 500 g/ha, Preemergence
  Plant response rating, Velvetleaf: 10
[10]; [11]
  Plant response rating, Nutsedge: 0
[10]; Rate 62 g/ha, Postemergence
  Nutsedge plant response rating: 0
[10]; Rate 125 g/ha, Postemergence
  Nutsedge plant response rating: 0
[10]; Rate 125 g/ha, Preemergence
  Plant response rating, Nutsedge: 0
[10]; Rate 250 g/ha, Postemergence
  Plant response rating, Nutsedge: 0
[10]; Rate 250 g/ha, Preemergence
  Plant response rating, Nutsedge: 0
Wild oat (Avena fatua); [11]
  Plant response rating, Wild oats: 4
Wild oat (Avena fatua); Rate 62 g/ha, Postemergence
  Wild oats plant response rating: 3
Wild oat (Avena fatua); Rate 125 g/ha, Postemergence
  Wild oats plant response rating: 3
Wild oat (Avena fatua); Rate 125 g/ha, Preemergence
  Plant response rating, Wild oats: 5
Wild oat (Avena fatua); Rate 250 g/ha, Postemergence
  Plant response rating, Wild oats: 3
Wild oat (Avena fatua); Rate 250 g/ha, Preemergence
  Plant response rating, Wild oats: 7
Wild oat (Avena fatua); Rate 500 g/ha, Postemergence
  Plant response rating, Wild oats: 5
Wild oat (Avena fatua); Rate 500 g/ha, Preemergence
  Plant response rating, Wild oats: 8
